Data set [1] concerns the target human A3 receptor (Homo sapiens (Human), UniProt P0DMS8). Description: Binding assay at the human A3 receptor (Example 2). The settings on record: CHO cells expressing human A3AR; radioligand [125I]I-AB-MECA; n = 3-5; read-out: Affinity (Ki, nM) A3.
Data set [2] has as its target T1, human A3AR (Homo sapiens (Human), UniProt P0DMS8). Description: [35S]GTPγS binding assay, membranes of CHO cells expressing human A3AR. It is filed as biochemical. (In general: Binding of GTPγS marks nucleotide exchange on a G protein.)
Data set [3] deals with T1, human A3AR. As to the kind of experiment: Cyclic AMP accumulation / adenylate cyclase assay, CHO cells expressing hA3AR. Format: cell-based.
The subject of data set [4] is mice. Description: Minimal behavioral toxicity test, rotorod procedure. The settings on record: i.p.
For data set [5], the system named is s.c. metrazol seizures in mice. As to the kind of experiment: s.c. metrazol (scMET) seizure test. It is filed as in vivo. The settings on record: i.p. From the text: In vivo anticonvulsant activity was established by both electrical and chemoconvulsant seizure tests which have been described previously. White, H. S., et al., Ital. J. Neurol. […] White, H. S. et al., Antiepileptic Drugs ([…].; Meldrum, B. S. ed), 1995, pp 99-110, Raven Press, New York.; and Smith, M., et al., Neurotherapeutics 2007, 4, 12-17. The electrical tests used were the maximal electroshock (MES) seizure test, the 6 Hz minimal clonic seizure test, and the corneal kindled mouse test. The chemical test was the s.c. metrazol seizure tests. Time of peak effect (TPE) is deduced from data generated in initial qualitative test procedures. […] The time point at which the compound produces the most activity/toxicity was chosen as TPE.

The test system of data set [6] is MES seizures in mice. As to the kind of experiment: Maximal electroshock (MES) seizure test. The following applies: i.p. It is filed as in vivo. Here is the method: The electrical tests used were the maximal electroshock (MES) seizure test, the 6 Hz minimal clonic seizure test, and the corneal kindled mouse test. The chemical test was the s.c. metrazol seizure tests. Time of peak effect (TPE) is deduced from data generated in initial qualitative test procedures. Five groups of 4 animals each are administered the test compound, and each group is tested at one of five different time intervals: ¼, ½, 1, 2 and 4 h. The time point at which the compound produces the most activity/toxicity was chosen as TPE.
(§1) For the MES and 6 Hz tests, a drop of anesthetic/electrolyte solution (0.5% tetracaine hydrochloride in 0.9% saline) was applied to the eyes of each animal prior to placement of the corneal electrodes. The electrical stimulus in the MES test was 50 mA, 60 Hz, for mice. Abolition of the hindleg tonic extensor component of the seizure was used as the endpoint.
(In general: The maximal electroshock test induces tonic seizures with an electrical stimulus.)

The test system of data set [7] is seizures induced by 6 Hz corneal stimulation in mice. Description: 6 Hz minimal clonic seizure test. It is filed as in vivo. The settings on record: for ED50: Mus musculus, ip, read-out: 6 Hz model ED50; for ED50 / 6 Hz model ED50: mice, i.p., measured at 1 h post injection. As for the experimental part:
as §1
The ability of the test substance to prevent seizures induced by 6 Hz corneal stimulation (32 mA, 3 sec duration) in mice was evaluated at a convulsive current that evokes a seizure in 97% of the population tested (CC97). Six Hz seizures are characterized by a minimal clonic phase that is followed by stereotyped, automatistic behaviors described originally as being similar to the aura of human patients with partial seizures. Toman, J. E. et al., Tex. Rep.
Animals not displaying this behavior were considered protected.

The target in data set [8] is T2, hA1AR (Homo sapiens (Human), UniProt P30542). As to the kind of experiment: A1AR functional assay, inhibition of forskolin-stimulated cyclic AMP production in AR-transfected CHO cells. The following applies: FIG. 12, compared to full agonist NECA. Format: cell-based.
T2 sequence (P30542 whole entry): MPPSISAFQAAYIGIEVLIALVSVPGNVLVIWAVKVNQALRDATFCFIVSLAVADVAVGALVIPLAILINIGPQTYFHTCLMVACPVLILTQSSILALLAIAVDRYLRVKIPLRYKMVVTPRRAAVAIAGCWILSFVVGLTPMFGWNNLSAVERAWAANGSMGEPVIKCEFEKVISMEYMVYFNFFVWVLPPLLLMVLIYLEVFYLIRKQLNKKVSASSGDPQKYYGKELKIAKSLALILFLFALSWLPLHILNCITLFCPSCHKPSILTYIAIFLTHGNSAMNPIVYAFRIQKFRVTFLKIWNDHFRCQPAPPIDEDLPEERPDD
Data set [9] deals with T2, hA1AR. Description: Radioligand membrane binding at hA1AR (Example 6). Here is the method:
(§2) In addition, 800 μg/mL Geneticin and 500 μg/mL hygromycin were added to the A2A media and to the A1 and A3 media, respectively. […] The concentration of protein was determined using a BCA Protein Assay Kit from Pierce Biotechnology (Rockford, Ill.).
(§3) Radioligand binding assays at A1, A2A, and A3ARs were performed according to the procedures described previously.
(§4) All of the filters were washed 3 times with Tris-HCl, pH 7.5. […] Filters for A3AR binding were counted using a PerkinElmer Cobra II γ-counter.
(§5) Binding and functional parameters were calculated using Prism 5.0 software (GraphPAD, San Diego, Calif., USA). IC50 values obtained from competition curves were converted to Ki values using the Cheng-Prusoff equation. Data were expressed as mean±standard error.

Data set [10] is described as follows: in vivo. The following applies: mouse, ip.
Data set [11] deals with T3, hA2AAR (Homo sapiens (Human), UniProt P29274). Description: Radioligand membrane binding at hA2AAR (Example 6). The following applies: HEK293 cells expressing hA2AAR; [3H]CGS21680; n = 3-5; read-out: Affinity Ki, nM A2A. As for the experimental part: as §2, §3, §4, §5
T3 sequence (P29274 whole entry): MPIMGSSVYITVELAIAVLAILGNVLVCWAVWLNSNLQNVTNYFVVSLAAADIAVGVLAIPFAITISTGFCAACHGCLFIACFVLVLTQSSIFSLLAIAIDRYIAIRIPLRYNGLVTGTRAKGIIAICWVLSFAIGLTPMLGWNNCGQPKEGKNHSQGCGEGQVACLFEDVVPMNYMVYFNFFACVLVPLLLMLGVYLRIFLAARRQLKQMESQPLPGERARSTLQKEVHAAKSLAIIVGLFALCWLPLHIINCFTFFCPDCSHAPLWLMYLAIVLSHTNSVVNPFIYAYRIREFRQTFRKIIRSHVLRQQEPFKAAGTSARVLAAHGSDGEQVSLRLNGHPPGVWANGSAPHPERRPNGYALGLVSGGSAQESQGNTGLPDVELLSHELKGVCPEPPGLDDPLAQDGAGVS
Data set [12] has as its system corneal kindled mice. As to the kind of experiment: Corneal-kindled mouse model of partial seizures. It is filed as in vivo. The following applies: qualitative test, 3 mg/kg, 1 hour post injection, n=4. From the text:
Mice were kindled according to the methods described by […] and […]; […] Louis, Mo.) was applied to the cornea to ensure local anesthesia and good electrical conductivity. Stimulations were at least four hours apart. […] See Racine, R., Electroencephalogr. Clin. Neurophysiol. 1972, pp. 281-294. At the completion of the kindling acquisition, mice were permitted at least a 3-day stimulation-free period prior to any drug testing. Mice were stimulated once the day before drug testing to ensure they had achieved and maintained a kindled state. On the day of the drug study, corneal kindled mice (n=4, or 8) received a single i.p. dose of test compound. Mice were challenged with the corneal kindling stimulus of 3 mA for 3 seconds at TPE after test compound administration. Mice were scored as protected (seizure score of ≦3) or not protected, (seizure score ≧4) based on the Racine scoring.

The target of data set [13] is hA3AR (Homo sapiens (Human), UniProt P0DMS8). The settings on record: values from literature references; read-out: Affinity Ki, nM A3; cited from earlier work.
Sequence of hA3AR (P0DMS8 whole entry): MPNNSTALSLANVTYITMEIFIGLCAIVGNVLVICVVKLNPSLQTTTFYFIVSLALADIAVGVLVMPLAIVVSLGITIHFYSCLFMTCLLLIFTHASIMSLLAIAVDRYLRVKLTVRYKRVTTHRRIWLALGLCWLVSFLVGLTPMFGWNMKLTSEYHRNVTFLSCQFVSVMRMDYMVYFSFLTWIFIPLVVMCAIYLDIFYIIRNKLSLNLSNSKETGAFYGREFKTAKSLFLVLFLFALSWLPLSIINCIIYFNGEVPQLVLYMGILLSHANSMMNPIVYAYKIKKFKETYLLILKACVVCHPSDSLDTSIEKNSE
The target of data set [14] is T3, hA2AAR. The settings on record: values from literature references; read-out: Affinity Ki, nM A2A; cited from earlier work.
Data set [15] concerns the target T2, hA1AR. The settings on record: values from literature references; read-out: Affinity Ki, nM A1; cited from earlier work.

Molecules are shown by their SMILES. Several values for one entry are separate records, joined by “and”; a condition that tells them apart may be missing. Identical values can stand only once. Like-named read-outs stand apart in the source and are kept apart here. Marks after values point to notes of the source that are not given here. Where only a bound is given, the exact number is not on record here.

T1 sequence (P0DMS8 whole entry): as above
Sequence of human A3 receptor (P0DMS8 whole entry): as above

Turning to `O[C@@H]1[C@H](O)[C@@H]2C[C@@H]2[C@H]1n1cnc2c(NCc3cccc(I)c3)nc(Cl)nc21` [Compound 7b, (1′R,2′R,3′S,4′R,5′S)-4′-[2-Chloro-6-(3-iodobenzylamino)purine]-2′,3′-O-dihydroxybicyclo-[3.1.0]hexane], the Ki in data set [1] came to 1.44 ± 0.6 nM. Further, in data set [2] (read-out: IC50, inhibition of [35S]GTPγS binding stimulated by NECA, stimulation by 1 μM NECA), the IC50 was 0.0298 µM. In addition, the “% Efficacy A3” value in [2] (stimulation measured by [35S]GTPγS binding assay) is 1.0 ± 3.2%. Besides, the EC50 in data set [3] (partial agonism, read-out: EC50 at A3AR, cAMP assay) turned out to be 0.012 ± 0.001 µM. The Kb in data set [3] (right shifts of response curves in the inhibition of adenylate cyclase by NECA, read-out: KB value, Schild analysis) came out at 0.0089 µM.

In the case of `OC[C@H]1O[C@@H](n2cnc3c(NC4CCCC4)nc(Cl)nc32)[C@H](O)[C@@H]1O` [Compound 235b, 2-chloro-N^6-cyclopentyladenosine], the “Behavioral toxicity TD50” value in data set [4] (measured at 1 h post injection) was 0.84 mg/kg and 0.84^c mg/kg. In data set [5] (1 mg/kg), the “scMET model, number of animals protected from convulsions” value (shortened to “scMET model, number”) is recorded as 1 out of 4. Moreover, the “MES model, number of animals protected from convulsions” value (“MES model, number of animals protected” for short) in [6] (1 mg/kg) is given as 1 out of 4 at. Further, in data set [7], the ED50 worked out at 0.12 mg/kg and the “6 Hz model ED50” value is 0.12^c mg/kg.

For `O[C@@H]1[C@H](O)[C@@H]2C[C@@H]2[C@H]1n1cnc2c(NC(C3CC3)C3CC3)nc(Cl)nc21` [Compound 121, (1R,2R,3S,4R,5S)-4-(2-Chloro-6-(dicyclopropylmethylamino)-9H-purin-9-yl)bicyclo[3.1.0]hexane-2,3-diol], the “agonist character at A1 AR, concentration-response curve of inhibition of cyclic AMP production” value in data set [8] is “full agonist”. In [9], the “times less potent at the A1AR in in vitro binding compared to 235b” value is reported as about 40 times. In addition, the Ki in data set [9] (CHO cells expressing hA1AR, [3H]R-PIA, n = 3-5, read-out: Affinity Ki, nM A1) turned out to be 47.9 ± 10.5 nM; in data set [11], 3950 ± 410 nM. The TD50 in data set [10] was over 10 mg/kg. In addition, in data set [4], the “Behavioral toxicity TD50” value is listed as over 10 mg/kg. Besides, in data set [5] (3 mg/kg), the “scMET model, number” value is given as “No protection”. The “MES model, number of animals protected” value in [6] (3 mg/kg) is reported as 1 out of 4. Further, in data set [7], the ED50 stood at 2.74 mg/kg. Also, in data set [7] (mouse, in vivo), the “ED50 in antiseizure models, times less potent compared to 235b” value is on record as “about 20 times”. Moreover, in data set [12], the “corneal kindled mouse model, animals protected” value was “all animals (n=4) were protected”.

For `NCCNC(=O)Cc1ccc(NC(=O)Cc2ccc(Nc3ncnc4c3ncn4[C@@H]3O[C@H](CO)[C@@H](O)[C@H]3O)cc2)cc1` [Compound 237], the Ki in data set [13] is 12.4 ± 4.1 nM; in [14], 370 ± 100 nM; in data set [15] it was 10.4 ± 3.8 nM. Besides, in data set [4] (measured at 4 h post injection), the “Behavioral toxicity TD50” value was 0.14^d mg/kg. Also, the “scMET model, number” value in data set [5] (1 mg/kg) is on record as 5 out of 8. Further, the “MES model, number of animals protected” value in data set [6] (2 mg/kg) is 4 out of 8. The “6 Hz model ED50” value in data set [7] is on record as 0.03^c mg/kg.

As usually defined, the Ki is the equilibrium dissociation constant of an inhibitor or competing ligand from its target. A word on the IC50: it is the concentration that gives 50% inhibition. What is called EC50 is the concentration giving half of the maximal effect. The ED50 is the dose at which the effect has come halfway, by size or by number of responders.

The values above are taken from patent publication US9181253B2 (The United States of America, as represented by the …, priority 2008, dated 2015).
